Data taken from PubChem BioAssay (NCI).
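1) Cells in 96-well plates. 2) Compound, 48 h, 5 concentrations. 3) Linear interpolation between surrounding doses. 4) Unreached endpoint = highest concentration. GI50 = concentration required for 50% inhibition of growth. TGI is the concentration that stops growth completely.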

Test system: NCI-H226 lung
Assay: DTP human tumour cell line panel, 48 h

COC(=O)CC(c1ccccc1)C1(c2ccccc2)SCCS1 (centres undefined) and c1ccc(NCn2cnc3ccccc32)cc1 cannot be ordered by TGI: greater than 290 µM for the first, greater than 100 µM for the second.

Compared with O=C(/C(=C/c1ccc([N+](=O)[O-])cc1)SCc1ccccc1)c1ccc(Cl)cc1, N#C/C(=C\c1cccc(Cl)c1Cl)c1ccccc1 is higher in TGI: 34.1 µM for the first, greater than 100 µM for the second.

CCOC(=O)C1=C(C(=O)OCC)C2c3ccccc3C=CN2C(C(=O)OCC)=C(SC)S1 (centres undefined) and COC(=O)C(CCCN1C(=O)c2ccccc2C1=O)C(=O)OC cannot be ordered by TGI: greater than 100 µM for the first, greater than 100 µM for the second.

First: CCCCCC[C@@H]1CCC2C(CO)[C@@H](O)CC[C@@H]2C1 (some centres undefined)
Second: CCCCN(CCCC)C(=O)C(=O)C(C(=O)c1ccc(OC)cc1)c1ccc(OC)cc1 (centres undefined)
The TGI of the first is lower: 39.7 µM for the first, greater than 100 µM for the second.

Going from O=C(O)c1ccc2c(c1C(=O)O)C(=O)OC2(c1ccc(O)cc1)c1ccc(O)cc1 to NC(=O)c1ccccc1NC(=O)C(=O)C(C(=O)c1ccc(Cl)c(Cl)c1)C1OC(=O)c2ccccc21 (centres undefined), the TGI falls from greater than 100 µM to 56.3 µM.

Compared with N#Cc1c[nH]n2c(N=Nc3ccc(Cl)cc3)c(O)nc12, Cc1ccc(-n2c3nc(=O)[nH]c(=O)c-3cc3cc([N+](=O)[O-])ccc32)cc1 is 2-fold higher in TGI: 43.3 µM for the first, 86 µM for the second.

O=S(=O)(c1ccccc1)N1CCN(S(=O)(=O)c2ccccc2)c2ccccc21 and O=S(=O)(N/N=C/c1cccc(/C=N/NS(=O)(=O)c2ccccc2)c1)c1ccccc1 cannot be ordered by TGI: greater than 100 µM for the first, greater than 100 µM for the second.

S=c1sc2c(n1-c1ccccc1)NC=NC2S (centres undefined) and CC1SC(c2ccc(F)cc2)N(NC(=O)C(O)c2ccccc2)C1=O (centres undefined) cannot be ordered by TGI: greater than 100 µM for the first, greater than 100 µM for the second.

CCOC(=O)C1=C(C)N(c2ccc(F)cc2F)[C@]2(C#N)C(O)=C(Cl)C(Cl)=C(O)[C@]12C#N and Cc1cccc(C)c1NC(=O)CCCC(=O)C1/C(=N/NC(=O)CC#N)CCC/C1=N\NC(=O)CC#N (centres undefined) cannot be ordered by TGI: greater than 100 µM for the first, greater than 100 µM for the second.

Cc1csc(-c2nnc(Nc3ccc(Oc4ncccc4-c4ccnc(N)n4)cc3)c3ccccc23)c1 and Cn1ccc2c3c(Oc4ccc(NC(N)=O)cc4)ccnc3ccc21 cannot be ordered by TGI: greater than 100 µM for the first, greater than 100 µM for the second.

Compared with Cc1ccc(/C=C/C(=O)CCN(C)C)cc1, Cc1ccc(Oc2ccc(C)cc2N)cc1 is higher in TGI: 49.4 µM for the first, greater than 100 µM for the second.

Compared with C/C(=N/Nc1ccc([N+](=O)[O-])cc1[N+](=O)[O-])C(CC(C(=O)NCc1ccccc1)/C(C)=N\Nc1ccc([N+](=O)[O-])cc1[N+](=O)[O-])C(=O)NCc1ccccc1 (centres undefined), O=C(Nc1ccccc1-c1nn(C(=S)Nc2ccccc2)c(=S)n(C(=S)Nc2ccccc2)c1=O)C(F)(F)F is 2.9-fold higher in TGI: 25.8 µM for the first, 76 µM for the second.

N[C@@H]1CCCC[C@@H]1N.O=P([O-])([O-])CN(CCN(CP(=O)([O-])[O-])CP(=O)([O-])[O-])CP(=O)([O-])[O-].[Pt+2] and COc1nc(NC2OC(COC(C)=O)C(OC(C)=O)C(OC(C)=O)C2OC(C)=O)c2c(OC(C)=O)cc(=O)oc2n1 (centres undefined) cannot be ordered by TGI: greater than 25 µM for the first, greater than 100 µM for the second.

COc1ccc(OC)c(N2CC(N)C2=O)c1 (centres undefined) and COc1ccc(C)cc1-c1cc(Sc2ccccc2)c(-c2cc(C)ccc2OC)o1 cannot be ordered by TGI: greater than 100 µM for the first, greater than 31.6 µM for the second.

CC(C)(C)c1cc2c(O)c3cccc4c(=O)c5cccc6c5-c(c34)c2c(c1)c6=O and O=c1c(-c2ccccc2)c2oc(c1-c1ccccc1)CSCc1cccc(c1)CSC2 cannot be ordered by TGI: greater than 100 µM for the first, greater than 100 µM for the second.

Going from C=C(C)CCOC(c1ccccc1)(c1ccccc1)c1ccccc1 to CC(=O)O/N=C(/C)c1ccccc1O, the TGI rises from 97.8 µM to greater than 100 µM.

CC(=O)OCCOCNC(=S)N/N=C(\C)c1cnccn1 gave a TGI of 79.7 µM.

Going from O=C(/C(=C/c1ccc([N+](=O)[O-])cc1)SCc1ccccc1)c1ccc(Cl)cc1 to CC1SC(c2ccc(F)cc2)N(NC(=O)C(O)c2ccccc2)C1=O (centres undefined), the GI50 rises from 4.53 µM to greater than 100 µM.

N#Cc1c[nH]n2c(N=Nc3ccc(Cl)cc3)c(O)nc12 and Cc1ccc(-n2c3nc(=O)[nH]c(=O)c-3cc3cc([N+](=O)[O-])ccc32)cc1 are within 1.5-fold of each other in GI50: 18.5 µM for the first, 24.6 µM for the second.

CCOC(=O)C1=C(C)N(c2ccc(F)cc2F)[C@]2(C#N)C(O)=C(Cl)C(Cl)=C(O)[C@]12C#N and Cn1ccc2c3c(Oc4ccc(NC(N)=O)cc4)ccnc3ccc21 cannot be ordered by GI50: greater than 100 µM for the first, greater than 100 µM for the second.

Cc1csc(-c2nnc(Nc3ccc(Oc4ncccc4-c4ccnc(N)n4)cc3)c3ccccc23)c1 and N[C@@H]1CCCC[C@@H]1N.O=P([O-])([O-])CN(CCN(CP(=O)([O-])[O-])CP(=O)([O-])[O-])CP(=O)([O-])[O-].[Pt+2] cannot be ordered by GI50: greater than 63.8 µM for the first, greater than 25 µM for the second.

Test system: PC-3 prostate
Assay: DTP human tumour cell line panel, 48 h

O=C(/C(=C/c1ccc([N+](=O)[O-])cc1)SCc1ccccc1)c1ccc(Cl)cc1 and Nc1cc(NN=C(c2ccc(O)cc2)c2ccc(O)cc2)c([N+](=O)[O-])cc1[N+](=O)[O-] are within 1.5-fold of each other in GI50: 2.35 µM for the first, 3.31 µM for the second.

First: CCCCCCCCCCCCCCCC[N+](C)(C)Cc1ccccc1
Second: CC1SC(c2ccc(F)cc2)N(NC(=O)C(O)c2ccccc2)C1=O (centres undefined)
The GI50 of the first is lower: 0.537 µM for the first, greater than 100 µM for the second.

Going from N#Cc1c[nH]n2c(N=Nc3ccc(Cl)cc3)c(O)nc12 to Cc1ccc(-n2c3nc(=O)[nH]c(=O)c-3cc3cc([N+](=O)[O-])ccc32)cc1, the GI50 falls from 23.1 µM to 12.2 µM (1.9-fold).

Cc1csc(-c2nnc(Nc3ccc(Oc4ncccc4-c4ccnc(N)n4)cc3)c3ccccc23)c1 and Cn1ccc2c3c(Oc4ccc(NC(N)=O)cc4)ccnc3ccc21 cannot be ordered by GI50: greater than 27.1 µM for the first, greater than 100 µM for the second.

COCCOc1ccc(-c2nc3ccc(-c4nc5ccc(N6CCN(C)CC6)cc5[nH]4)cc3[nH]2)cc1 gave a GI50 of 2.19 µM.

First: O=C(/C(=C/c1ccc([N+](=O)[O-])cc1)SCc1ccccc1)c1ccc(Cl)cc1
Second: Nc1cc(NN=C(c2ccc(O)cc2)c2ccc(O)cc2)c([N+](=O)[O-])cc1[N+](=O)[O-]
The TGI of the first is 2.3-fold lower: 5.43 µM for the first, 12.4 µM for the second.

First: CCCCCCCCCCCCCCCC[N+](C)(C)Cc1ccccc1
Second: CC1SC(c2ccc(F)cc2)N(NC(=O)C(O)c2ccccc2)C1=O (centres undefined)
The TGI of the first is lower: 2 µM for the first, greater than 100 µM for the second.

O=C(O)c1ccc2c(c1C(=O)O)C(=O)OC2(c1ccc(O)cc1)c1ccc(O)cc1 and Cn1ccc2c3c(Oc4ccc(NC(N)=O)cc4)ccnc3ccc21 cannot be ordered by TGI: greater than 100 µM for the first, greater than 100 µM for the second.

Going from N#Cc1c[nH]n2c(N=Nc3ccc(Cl)cc3)c(O)nc12 to Cc1ccc(-n2c3nc(=O)[nH]c(=O)c-3cc3cc([N+](=O)[O-])ccc32)cc1, the TGI falls from greater than 100 µM to 36.6 µM.

O=S(=O)(c1ccccc1)N1CCN(S(=O)(=O)c2ccccc2)c2ccccc21 and Cc1csc(-c2nnc(Nc3ccc(Oc4ncccc4-c4ccnc(N)n4)cc3)c3ccccc23)c1 cannot be ordered by TGI: greater than 100 µM for the first, greater than 100 µM for the second.

For COCCOc1ccc(-c2nc3ccc(-c4nc5ccc(N6CCN(C)CC6)cc5[nH]4)cc3[nH]2)cc1, the TGI was 24.5 µM.

Test system: NCI-H460 lung
Assay: DTP human tumour cell line panel, 48 h

COC(=O)CC(c1ccccc1)C1(c2ccccc2)SCCS1 (centres undefined) and c1ccc(NCn2cnc3ccccc32)cc1 cannot be ordered by TGI: greater than 290 µM for the first, greater than 100 µM for the second.

Going from O=C(/C(=C/c1ccc([N+](=O)[O-])cc1)SCc1ccccc1)c1ccc(Cl)cc1 to O=C(/C=C/c1ccc([N+](=O)[O-])cc1)c1ccc(NCc2nc3ccccc3[nH]2)cc1, the TGI falls from 20.3 µM to 5.64 µM (3.6-fold).

CCOC(=O)C1=C(C(=O)OCC)C2c3ccccc3C=CN2C(C(=O)OCC)=C(SC)S1 (centres undefined) and COC(=O)C(CCCN1C(=O)c2ccccc2C1=O)C(=O)OC cannot be ordered by TGI: greater than 100 µM for the first, greater than 100 µM for the second.

Compared with CC(=O)NNc1nc(C)c(C(=O)/C=C/c2ccc(NC(C)=O)cc2)s1, Cc1ccc(/C=C/C(=O)CCN(C)C)cc1 is lower in TGI: greater than 100 µM for the first, 65.6 µM for the second.

Compared with CCCCCC[C@@H]1CCC2C(CO)[C@@H](O)CC[C@@H]2C1 (some centres undefined), Cc1cccc(C)c1NC(=O)CCCC(=O)C1/C(=N/NC(=O)CC#N)CCC/C1=N\NC(=O)CC#N (centres undefined) is higher in TGI: 30.4 µM for the first, greater than 100 µM for the second.

O=C(O)c1ccc2c(c1C(=O)O)C(=O)OC2(c1ccc(O)cc1)c1ccc(O)cc1 and O=c1ccc2ccccc2cc1[O-].O=c1ccc2ccccc2cc1[O-].[O]=[U+2]=[O] cannot be ordered by TGI: greater than 100 µM for the first, greater than 100 µM for the second.

N#Cc1c[nH]n2c(N=Nc3ccc(Cl)cc3)c(O)nc12 and N#C/C(=C\c1cccc(Cl)c1Cl)c1ccccc1 cannot be ordered by TGI: greater than 100 µM for the first, greater than 100 µM for the second.

O=S(=O)(c1ccccc1)N1CCN(S(=O)(=O)c2ccccc2)c2ccccc21 and CC1SC(c2ccc(F)cc2)N(NC(=O)C(O)c2ccccc2)C1=O (centres undefined) cannot be ordered by TGI: greater than 100 µM for the first, greater than 100 µM for the second.

S=c1sc2c(n1-c1ccccc1)NC=NC2S (centres undefined) and Cc1ccc(-n2c3nc(=O)[nH]c(=O)c-3cc3cc([N+](=O)[O-])ccc32)cc1 cannot be ordered by TGI: greater than 100 µM for the first, greater than 100 µM for the second.

CCOC(=O)C1=C(C)N(c2ccc(F)cc2F)[C@]2(C#N)C(O)=C(Cl)C(Cl)=C(O)[C@]12C#N and Cc1cc2c(C)[nH]nc2c(C(=O)O)c1C cannot be ordered by TGI: greater than 100 µM for the first, greater than 100 µM for the second.

Cc1csc(-c2nnc(Nc3ccc(Oc4ncccc4-c4ccnc(N)n4)cc3)c3ccccc23)c1 and Cc1ccc(Oc2ccc(C)cc2N)cc1 cannot be ordered by TGI: greater than 100 µM for the first, greater than 100 µM for the second.

Compared with COc1cc(C2CC(C)(O)Oc3cc4c(cc32)OCO4)cc(OC)c1OC (centres undefined), COc1ccc(OC)c(N2CC(N)C2=O)c1 (centres undefined) is higher in TGI: 17.6 µM for the first, greater than 100 µM for the second.

Compared with COCCOc1ccc(-c2nc3ccc(-c4nc5ccc(N6CCN(C)CC6)cc5[nH]4)cc3[nH]2)cc1, CC(C)(C)c1cc2c(O)c3cccc4c(=O)c5cccc6c5-c(c34)c2c(c1)c6=O is higher in TGI: 14.7 µM for the first, greater than 100 µM for the second.

Going from C/C(=N/Nc1ccc([N+](=O)[O-])cc1[N+](=O)[O-])C(CC(C(=O)NCc1ccccc1)/C(C)=N\Nc1ccc([N+](=O)[O-])cc1[N+](=O)[O-])C(=O)NCc1ccccc1 (centres undefined) to COc1nc(NC2OC(COC(C)=O)C(OC(C)=O)C(OC(C)=O)C2OC(C)=O)c2c(OC(C)=O)cc(=O)oc2n1 (centres undefined), the TGI rises from 17.5 µM to 34.1 µM (1.9-fold).

N[C@@H]1CCCC[C@@H]1N.O=P([O-])([O-])CN(CCN(CP(=O)([O-])[O-])CP(=O)([O-])[O-])CP(=O)([O-])[O-].[Pt+2] was tested, and the TGI was greater than 25 µM.

Compared with O=C(/C(=C/c1ccc([N+](=O)[O-])cc1)SCc1ccccc1)c1ccc(Cl)cc1, O=c1ccc2ccccc2cc1[O-].O=c1ccc2ccccc2cc1[O-].[O]=[U+2]=[O] is 2.5-fold higher in GI50: 5.34 µM for the first, 13.6 µM for the second.

Going from N#Cc1c[nH]n2c(N=Nc3ccc(Cl)cc3)c(O)nc12 to Cc1ccc(-n2c3nc(=O)[nH]c(=O)c-3cc3cc([N+](=O)[O-])ccc32)cc1, the GI50 falls from 29.1 µM to 17.1 µM (1.7-fold).

CCOC(=O)C1=C(C)N(c2ccc(F)cc2F)[C@]2(C#N)C(O)=C(Cl)C(Cl)=C(O)[C@]12C#N and CC1SC(c2ccc(F)cc2)N(NC(=O)C(O)c2ccccc2)C1=O (centres undefined) cannot be ordered by GI50: greater than 100 µM for the first, greater than 100 µM for the second.

First: Cc1csc(-c2nnc(Nc3ccc(Oc4ncccc4-c4ccnc(N)n4)cc3)c3ccccc23)c1
Second: COCCOc1ccc(-c2nc3ccc(-c4nc5ccc(N6CCN(C)CC6)cc5[nH]4)cc3[nH]2)cc1
The GI50 of the first is 170-fold lower: 0.0214 µM for the first, 3.63 µM for the second.

With N[C@@H]1CCCC[C@@H]1N.O=P([O-])([O-])CN(CCN(CP(=O)([O-])[O-])CP(=O)([O-])[O-])CP(=O)([O-])[O-].[Pt+2] the GI50 was greater than 25 µM.
